# Results as given in PubChem BioAssay AID742 (SRMLSC, 2007).
# Activity calls are given as the source filed them. The rule behind the calls is not given here.
# Assays:
# [1] = inhibitors of Her2 kinase expression, dose response, cell-based, AlphaScreen, CellTiter-Glo viability (AID 742); details: human cells, Her2 expression AlphaScreen; CTG viability; at 9.62 µM (top of the series)
# [2] = test system: human cells, Her2 expression AlphaScreen; CTG viability; assay: as above; details: for EC50: viability, CellTiter-Glo
SMILES,Her2 inhibition [1],EC50 [2] [µM],IC50 [2]
C=CCOC(=O)C1=C(C)Nc2nnnn2C1c1cc(OC)ccc1OC (stereo not drawn),-8.6% (inactive),> 9.62,
Clc1ccc(COC(Cn2ccnc2)c2ccc(Cl)cc2Cl)c(Cl)c1 (stereo not drawn),-0.43% (inactive),> 9.62,
CCn1c(=N)n(CC(=O)C23CC4CC(CC(C4)C2)C3)c2ccccc21,-15.5% (inactive),> 9.62,
CS(=O)(=O)c1nc(-c2cccs2)cc(C(F)(F)F)n1,,> 9.62,7.37 µM
Cn1ncnc2c(=O)n(C)c(=O)nc1-2,,< 0.024,2.24 µM (inactive)
Cc1ccc(S(=O)(=O)c2c(C)nn(C(C)(C)C)c2OC(=O)c2ccc(Br)o2)cc1,4.78% (inactive),> 9.62,
C=CCn1c(=O)c2ccccc2n2c(SCc3cc(=O)n4ccsc4n3)nnc12,-18.6% (inactive),> 9.62,
N#CCCS(=O)(=O)c1nnnn1-c1ccccc1,3.51% (inactive),> 9.62,
Cn1nnnc1SCC(=O)Nc1c(Cl)cccc1Cl,-18.1% (inactive),> 9.62,
CCOC(=O)c1c(NC(=O)CSc2n[nH]c(N)n2)sc(CC)c1C,-10.4% (inactive),> 9.62,
CCCCCCCCNC(C)C(O)c1ccc(SC(C)C)cc1 (stereo not drawn),-16.3% (inactive),> 9.62,
CC(=O)c1sc2nc(-c3cccs3)cc(C(F)(F)F)c2c1N,,> 9.62,9.32 µM
CCOc1ccc(-c2[nH]ncc2Oc2ccccc2OCC)c(O)c1,1.97% (inactive),> 9.62,
Oc1ccc2ccccc2c1C=NCc1cn2ccsc2n1,-11.2% (inactive),> 9.62,
Cc1c(-c2cccs2)[n+](=O)c2c(n1[O-])CCCC2,-49% (inactive),> 9.62,
CC(C)OCCCNC(=O)c1c(N)n(Cc2cccs2)c2nc3ccccc3nc12,-14.5% (inactive),> 9.62,
O=S(=O)(C/C(=C/CO)S(=O)(=O)c1ccccc1)c1ccccc1,,> 9.62,5.12 µM
CC(=O)Nc1ccc(NS(=O)(=O)c2cc(C)sc2C)cc1,0.09% (inactive),> 9.62,
COc1cccc(-c2nnn(CC(=O)O)n2)c1,-1.29% (inactive),> 9.62,
CCCC1C(c2ccccc2)C(C#N)(C#N)C2(C#N)CC1(N)NC2=O (stereo not drawn),-6.63% (inactive),> 9.62,
C=CCn1c(SCc2nc3ccccc3c(=O)[nH]2)nnc1-c1cc2cc(Cl)ccc2o1,5.79% (inactive),> 9.62,

SMILES,Her2 inhibition [1],EC50 [2] [µM],IC50 [2]
O=C(NCC(=O)N(CCc1ccccc1)C(C(=O)NC1CCCC1)c1cccnc1)c1ccco1 (stereo not drawn),-12.6% (inactive),> 9.62,
C=C(C)COc1ccc(-c2n[nH]c(C)c2-c2ccccc2OC)c(O)c1,4.56% (inactive),> 9.62,
COC(=O)CSc1cc(SCC(=O)OC)c(C#N)c(SCC(=O)OC)c1,6.74% (inactive),> 9.62,
Cc1ccc(C(CC(=O)c2ccco2)SCCO)cc1 (stereo not drawn),10.4% (inactive),> 9.62,
COc1ccc(CSc2nnnn2Cc2ccccc2)cc1OC,-31.4% (inactive),> 9.62,
Cc1nc2nc(-c3ccco3)nn2c(C)c1Cl,,> 9.62,2.6 µM
COC(=O)/C=C/S(=O)(=O)c1ccc(NC(C)=O)cc1,20.9% (inactive),> 9.62,
COc1ccc(C(=O)c2no[n+]([O-])c2C(=O)c2ccc(OC)cc2)cc1,-48.2% (inactive),> 9.62,
CN1CC2=Cc3ccccc3OC23Oc2ccccc2C=C3C1,-10.3% (inactive),> 9.62,
COC(=O)c1sccc1NC(=O)c1ccc(Cl)s1,,> 9.62,9 µM
O=C1/C(=N/n2cnnc2)c2ccccc2N1Cc1ccccc1,-25% (inactive),> 9.62,
Cc1c(C#N)c(N)c(C(=O)c2ccccc2)n1Cc1ccccc1,-0.29% (inactive),> 9.62,
CCOC(=O)C1C(c2ccccc2Cl)NC(=O)N(C)C1(O)C(F)(F)F (stereo not drawn),-10.7% (inactive),> 9.62,
CN(C)CC(C(=O)c1ccccc1)c1ccccc1 (stereo not drawn),,> 9.62,8.84 µM
O=S(=O)(NCc1ccco1)c1cccc2cccnc12,-18.5% (inactive),> 9.62,
O=C(CSc1nc2cc(Cl)ccc2s1)c1ccco1,,> 9.62,5.09 µM
Clc1ccc(COC(Cn2ccnc2)c2ccc(Cl)cc2Cl)cc1 (stereo not drawn),1.73% (inactive),> 9.62,
COc1ccc2sc(NC(=O)CC(C)C)nc2c1,2.84% (inactive),> 9.62,
CNCCCC12CCC(c3ccccc31)c1ccccc12,-11.5% (inactive),> 9.62,
CCCCC(CC)Cn1c2nc3ccccc3nc2c2c(=N)oc(C)nc21 (stereo not drawn),-5.07% (inactive),> 9.62,
Cc1ccc(-c2csc3ncnc(Sc4nnc(CN5CCCCCC5=O)o4)c23)cc1,,> 9.62,4.53 µM

SMILES,Her2 inhibition [1],EC50 [2] [µM],IC50 [2]
CC(=N\O)/C(CN(C)C)=N/O,-15.9% (inactive),> 9.62,
Cc1cc(C)n(-c2c(F)c(F)c(CN3CCOCC3)c(F)c2F)n1,-10.7% (inactive),> 9.62,
CCOC(=O)N1CCN(CCC(=O)c2ccc(Cl)cc2)CC1,9.27% (inactive),> 9.62,
CCCOc1ccc(C(=O)CCN2CCCCC2)cc1,-16.8% (inactive),> 9.62,
Cc1ccccc1-n1nc2c(c1NC(=O)c1cc3ccccc3oc1=O)CS(=O)(=O)C2,-11.6% (inactive),> 9.62,
COc1ccccc1-c1cc(C(F)(F)F)nc(S(=O)(=O)CCCC(=O)NC(C)C)n1,5% (inactive),> 9.62,
CCOC(=O)N1CCN(C(=O)CSCc2nc(-c3ccccc3C)oc2C)CC1,-0.97% (inactive),> 9.62,
O=C(CSc1oc(-c2ccccc2)nc1S(=O)(=O)c1ccc(F)cc1)NCC1CCCO1 (stereo not drawn),11.4% (inactive),> 9.62,
O=C(c1ccc(F)cc1)C(CN1CCOCC1)c1ccccc1 (stereo not drawn),28.5% (inactive),> 9.62,
CC(=NCC1CCCO1)c1c(O)n(-c2ccccc2)c(=O)[nH]c1=O (stereo not drawn),-6.53% (inactive),> 9.62,
O=C(CCCCCn1c(=S)[nH]c2cc3c(cc2c1=O)OCO3)N1CCN(C2CCCCC2)CC1,4.12% (inactive),> 9.62,
Cc1ccc(-n2nc(C)c3c2OC(N)=C(C#N)C3c2ccc(F)cc2)cc1 (stereo not drawn),-1.17% (inactive),> 9.62,
c1ccc(-n2c(-c3ccncc3)nnc2N2CCOCC2)cc1,-8.89% (inactive),> 9.62,
CCOC(=O)c1c(C)[nH]c(C(=O)OC/C(O)=C(\C#N)c2nc3ccccc3[nH]2)c1C,16.6% (inactive),> 9.62,
CCCc1cc(C(=O)Cc2ccc(F)cc2)c(O)cc1O,-30.2% (inactive),> 9.62,
COc1ccc(C(=O)C(CN2CCCC2)c2ccccc2)cc1 (stereo not drawn),,> 9.62,8.95 µM
O=S(=O)(CCSc1ccccn1)c1nc2ccccc2s1,12.7% (inactive),> 9.62,
CC(O)CCc1nc2ccc(C(=O)O)cc2[nH]1 (stereo not drawn),-23.7% (inactive),> 9.62,
CCOC(=O)CC1=C(C(=O)OCC)C(c2ccc(OC)cc2OC)C(C#N)=C(N)O1 (stereo not drawn),-27.6% (inactive),> 9.62,
CN1CCN(c2ccc(C(N)=O)cc2N)CC1,-16.8% (inactive),> 9.62,
c1ccc(Cc2nn3c(COc4ccccc4)nnc3s2)cc1,-17.6% (inactive),> 9.62,

SMILES,Her2 inhibition [1],EC50 [2] [µM],IC50 [2]
O=C(NCCCc1ccccc1)c1ccncc1,-8.4% (inactive),> 9.62,
CCCCCn1c(CN2CCCCC2CC)nc2c1c(=O)n(C)c(=O)n2C (stereo not drawn),-28.1% (inactive),> 9.62,
N=c1n(CCO)c2ccccc2n1CCOc1ccc(Cl)cc1Cl,-2.09% (inactive),> 9.62,
O=S1(=O)C=C(Sc2nc3ccccc3s2)c2ccccc21,,> 9.62,5.63 µM
O=S1(=O)C=C(Sc2nc3cc(Cl)ccc3o2)c2ccccc21,,> 9.62,9.25 µM
CS(=O)(=O)c1nc(-c2ccco2)cc(C(F)(F)F)n1,,> 9.62,9.15 µM
COC(=O)/C(=C1/Oc2cc(C)oc(=O)c2S1)C(F)(F)F,,< 0.024,3.78 µM (inactive)
CCn1nc(-c2cccs2)nc2c(=O)n(C)c(=O)nc1-2,,< 0.024,2.55 µM (inactive)
O=S1(=O)C=C(Sc2nnc(-c3ccccc3)o2)c2ccccc21,,> 9.62,7.54 µM
Cc1nn2c(-c3ccco3)nnc2c2ccccc12,,> 9.62,2.38 µM
CCN1/C(=C/C(=O)c2ccco2)Sc2ccccc21,,> 9.62,3.63 µM
CCCCS(=O)(=O)/C=C\C=C/S(=O)(=O)CCCC,,> 9.62,4.07 µM
Cc1ccc(CNC(=O)c2cc3c(-c4ccc(Cl)cc4)nn(C)c3s2)o1,,> 9.62,6.48 µM
CSC1=N/C(=C\C=C\c2cccs2)C(=O)S1,,> 9.62,8.09 µM
Cc1nc(NC(=O)c2ccco2)sc1C(=O)Nc1ccc(Br)cc1,,> 9.62,1.49 µM
Cn1c(C(C#N)C(=O)c2ccco2)nc2ccccc21 (stereo not drawn),,> 9.62,2.25 µM
CCn1nc(-c2ccccc2)nc2c(=O)n(C)c(=O)nc1-2,,< 0.024,4.48 µM (inactive)
CCCn1c(NC(=O)c2ccco2)nc2ccccc21,,> 9.62,2.13 µM
O=S(=O)(CC(CN1CCCC1)N1CCCC1)c1ccc2ccccc2c1 (stereo not drawn),,> 9.62,7.29 µM
CS(=O)(=O)c1nc(-c2ccccc2)cc(C(F)(F)F)n1,,> 9.62,9.06 µM
Nc1nnnn1/N=C/C(Br)=C/c1ccccc1,,> 9.62,3.58 µM
